For this series, the system named is A549 cells. Kind of series: Apoptotic caspase activation (Western blot for PARP cleavage). The note with it: 48 h, extract 25 μg/ml and 50 μg/ml, staurosporine as positive control, FIG. 3. Background: In western blotting, separated proteins are transferred to a membrane and probed.

With `CN[C@@H]1C[C@H]2O[C@@](C)([C@@H]1OC)n1c3ccccc3c3c4c(c5c6ccccc6n2c5c31)C(=O)NC4` [staurosporine], the “cleavage of the caspase substrate PARP (caspase activity)” value is “efficient cleavage of the caspase substrate”.
